According to patent US9572895B2, “Multiplexed supramolecular assemblies for non-viral delivery of genetic material” (The Board of Trustees of the University of Illinois, priority 2010, dated 2017):

System: plasmid DNA
Experiment: Gel retardation assay on plasmid DNA
Assay type: binding
Settings: various agent:DNA mass ratios, 1% agarose gel
Method: A solution of DNA (1 μg/10 μL) was prepared in doubled distilled water. Appropriate amounts of spermine, DOS or oligoarginine dissolved in double distilled water were added to the DNA solution (10 μL) to achieve the desired spermine:DNA, DOS:DNA or Arg9:DNA weight ratio (FIGS. 6 and 7). Complexes were incubated at room temperature for 15 min, after which loading dye was added and the solution (10 μL) was run on a 1% agarose gel (70 V, 70 min). DNA was stained with ethidium bromide and visualized on a Gel Doc imaging system (Biorad, Herclues, Calif.).

## H-Arg-Arg-Arg-Arg-Arg-Arg-Arg-Arg-Arg-OH trifluoroacetate salt [Arg9]
  electrostatic interaction with plasmid DNA (gel retardation): confirming the electrostatic interaction
